From patent publication US20260308159A1, “BICYCLIC HETEROARYLAMIDES HAVING GPR68 MODULATING ACTIVITY” (RECURSION PHARMACEUTICALS, INC., priority 2023, published 2026) come the findings set out here.

pIC50: −log10 of the molar value. Some results are limits rather than exact numbers.

The target of the test is T1, human GPR68 (Homo sapiens, UniProt Q15743).
T1 construct: encoding full-length human GPR68 (uniprot ID: Q15743); expressed in transfected cells; host or cells: HEK293T
As to the kind of experiment: GPR68 Biochemical Assay (Promega GloSensor cAMP assay, GPR68 antagonism). The class given is cell-based. The note with it: HEK293T cells transiently expressing hGPR68, antagonism of pH 5.5 stimulated cAMP, 15 min, read-out: hGPR68 IC50. As for the experimental part: GPR68 antagonism was determined using the Promega GloSensor™ CAMP assay (F. I. Wang et al., Methods 2021, S1046-2023 (21) 00249-8). HEK293T cells (obtained from ECACC, Cat 12022001, Lot no. 17E044) were cultured in T175 flasks (Greiner, Cat 660175) in DMEM (Gibco, Cat 11995-065) supplemented with 10% Fetal Bovine Serum (Gibco Cat 16000-044), and 100 u/mL Pen-Strep (Gibco, Cat 15140) at 37° C. and 5% CO2. GPR68 expression was achieved by transient transfection with a mammalian expression plasmid encoding full-length human GPR68 (uniprot ID: Q15743) under control of a CMV promoter. The day before transfection, cell media was aspirated and HEK293T cells were incubated with accutase (Sigma, Cat A6964) for 3-4 minutes 37° C. and 5% CO2 before being manually detached with excess DMEM and trituration. Cell density was determined by automated cell counting (Countess, Invitrogen) and adjusted to 6×10^6 cells/20 mL and transferred to 15 cm dishes (Thermo Fisher, Cat 130183) for overnight incubation at 37° C. and 5% CO2. The next day separate mammalian expression plasmids encoding hGPR68 (4 μg) and Promega GloSensor (8 μg) were diluted to 1 mL in Opti-MEM (Thermo Fisher Scientific, Cat 31985070) and incubated with 30 μL of lipofectamine 3000 (also diluted to 1 mL in Opti-MEM) for 15 minutes at room temperature and subsequently added dropwise to the plated cells. Post transfection cells were then incubated at 37° C. and 5% CO2 for at least 16 hours before transfer to assay plates the following day. Transfer was conducted by washing cells with PBS and incubating with accutase for 3-4 minutes 37° C. and 5% CO2 before being manually detached with excess DMEM and mild trituration. The suspension was then centrifuged at 192 RCF for 4 minutes in a 50 mL centrifuge tube (Greiner, Cat 227261).
Supernatant was removed by aspiration and the cell pellet was resuspended in DMEM+1% dialysed FBS (Gibco, Cat 26400-044) and 100 u/mL Pen-Strep to a cell density of 500 cells/μL. Cells were plated into poly-L-Lysine coated 384-well white assay plates (Corning, Cat 3570) at a final volume of 40 µL and a density of 20,000 cells/well before overnight incubation at 37° C. and 5% CO2. The following day media was manually ejected from the 384-well assay plate and replaced with 10 μL GloSensor substrate (Promega, Cat E1291) prepared in pH 8.0 assay buffer (1×HBSS, 10 mM HEPES, 10 mM MOPS). Cells were incubated with this solution for 60 minutes at room temperature in the dark. Test compounds or an equivalent volume of DMSO (vehicle) were added to compounds plates to create a 9-point, half-log concentration series for each compound with a maximum final assay concentration of 50 μM and a consistent final DMSO concentration of 0.5%. Assay buffer with 0.1% BSA and 0.01% ascorbic acid was prepared at three pHs: pH 8.0, pH 5.5 and pH 4.5. pH 8.0 and 4.5 were added to the compound plate as maximum and minimum effect controls whilst pH 5.5 was added to all compound wells to stimulate GPR68 to a level corresponding to […] of maximal stimulation after addition to the cells already in pH 8.0 (assay acceptance criteria range 70-90%). DMSO/Compound and buffer was added to the plated cells containing the GloSensor substrate and incubated for 15 minutes at room temperature before being read on a microplate reader (BMG PHERAstar, optic module LUM Plus with Gain 3600). Data was exported and analysed in excel and Graphpad prism (version 9). Assay QC acceptance criteria required the maximum and minimum controls to return a Z′≥0.5, the EC80 to be 80%±10% of expected and the reference ligand pIC50 to be within one-half-log unit of its historical IC50. Percent inhibition was calculated using the mean EC80 (pH 5.5) and mean minimum effect control (pH 8.0). Data were plotted as percentage inhibition, average±SEM. IC50, Emax, Emin, Actual max, actual min, R^2 and fit confidence were calculated using Graphpad Prism's sigmoidal dose-response function.
For orientation: Cyclic AMP is a second messenger, typically raised through Gs and lowered through Gi signalling.

T1 sequence (Q15743 whole entry): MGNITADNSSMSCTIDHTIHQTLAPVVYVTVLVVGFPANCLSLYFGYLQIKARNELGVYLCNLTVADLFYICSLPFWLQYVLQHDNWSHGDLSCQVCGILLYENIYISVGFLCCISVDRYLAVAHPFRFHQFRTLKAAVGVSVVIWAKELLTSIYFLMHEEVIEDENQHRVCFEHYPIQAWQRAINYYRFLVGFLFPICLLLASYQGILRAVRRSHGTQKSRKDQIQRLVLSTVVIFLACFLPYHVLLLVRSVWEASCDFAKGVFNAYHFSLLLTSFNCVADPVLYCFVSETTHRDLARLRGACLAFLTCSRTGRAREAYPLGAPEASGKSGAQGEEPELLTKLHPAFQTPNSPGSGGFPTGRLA

For the molecule `COCc1nn2c(C(=O)NC3CCC(F)(F)CC3F)ccnc2c1C(N)=O` (mixture of isomers) [Compound 154, 2-(methoxymethyl)-N7-(2,4,4-trifluorocyclohexyl)pyrazolo[1,5-a]pyrimidine-3,7-dicarboxamide], the pIC50 – broadly, the IC50 on a negative log10 scale, so that one unit is a factor of ten – is 6.30 to 7.30. With `COCc1nn2c(C(=O)N[C@@H]3Cc4ccccc4[C@@H]3O)ccnc2c1C(N)=O` (relative stereo) [Compound 200, N7-(cis-1-hydroxyindan-2-yl)-2-(methoxymethyl)pyrazolo[1,5-a]pyrimidine-3,7-dicarboxamide] the figure was greater than 7.30; with `COCc1nn2c(C(=O)NC3Cc4cccnc4C3)ccnc2c1C(N)=O` (single isomer, unassigned) [Compound 146, N7-(6,7-dihydro-5H-cyclopenta[b]pyridin-6-yl)-2-(methoxymethyl)pyrazolo[1,5-a]pyrimidine-3,7-dicarboxamide], 6.30 to 7.30. Regarding `COCc1nn2c(C(=O)NC3Cc4cccnc4C3)ccnc2c1C(N)=O` (single isomer, unassigned) [Compound 147, N7-(6,7-dihydro-5H-cyclopenta[b]pyridin-6-yl)-2-(methoxymethyl)pyrazolo[1,5-a]pyrimidine-3,7-dicarboxamide], the pIC50 is greater than 7.30.

Regarding `COCc1nn2c(C(=O)NC3CC(F)(F)c4ccccc43)ccnc2c1C(N)=O` (single isomer, unassigned) [Compound 173, N7-(3,3-difluoroindan-1-yl)-2-(methoxymethyl)pyrazolo[1,5-a]pyrimidine-3,7-dicarboxamide], the pIC50 was greater than 7.30.

On to `COCc1nn2c(C(=O)NC3CC(F)(F)c4ccccc43)ccnc2c1C(N)=O` (single isomer, unassigned) [Compound 174, N7-(3,3-difluoroindan-1-yl)-2-(methoxymethyl)pyrazolo[1,5-a]pyrimidine-3,7-dicarboxamide], for which the pIC50 was greater than 7.30. With `COCc1nn2c(C(=O)NC3CCC(F)(F)c4ccccc43)ccnc2c1C(N)=O` (single isomer, unassigned) [Compound 175, N7-[-4,4-difluorotetralin-1-yl]-2-(methoxymethyl)pyrazolo[1,5-a]pyrimidine-3,7-dicarboxamide], the pIC50 was greater than 7.30.

On to `COCc1nn2c(C(=O)N[C@H]3CCS(=O)(=O)c4ccccc43)ccnc2c1C(N)=O` (single isomer, unassigned) [Compound 234], for which the pIC50 is greater than 7.30.

With `NC(=O)c1cnn2c(C(=O)NC3Cc4ccccc4C3)ccnc12` [Compound 1, N7-indan-2-ylpyrazolo[1,5-a]pyrimidine-3,7-dicarboxamide], the negative-log IC50 (pIC50) was 6.30 to 7.30. With `Cc1cccc2c1CC(NC(=O)c1ccnc3c(C(N)=O)cnn13)C2` (stereo not shown) [Compound 2, N7-(4-methylindan-2-yl)pyrazolo[1,5-a]pyrimidine-3,7-dicarboxamide] the figure was 6.30 to 7.30. For `COc1ccc2c(c1)CC(NC(=O)c1ccnc3c(C(N)=O)cnn13)C2` (stereo not shown) [Compound 3, N7-(5-methoxyindan-2-yl)pyrazolo[1,5-a]pyrimidine-3,7-dicarboxamide], the pIC50 was 4.00 to 4.30.

In the case of `NC(=O)c1cnn2c(C(=O)NC3Cc4cccc(Cl)c4C3)ccnc12` (stereo not shown) [Compound 4, N7-(4-chloroindan-2-yl)pyrazolo[1,5-a]pyrimidine-3,7-dicarboxamide], the pIC50 was 6.30 to 7.30. With `NC(=O)c1cnn2c(C(=O)NC3CNc4ccccc4C3)ccnc12` (stereo not shown) [Compound 5, N7-(1,2,3,4-tetrahydroquinolin-3-yl)pyrazolo[1,5-a]pyrimidine-3,7-dicarboxamide] the figure was 5.30 to 6.30; with `NC(=O)c1cnn2c(C(=O)NC3COc4ccccc4C3)ccnc12` (stereo not shown) [Compound 6, N7-chroman-3-ylpyrazolo[1,5-a]pyrimidine-3,7-dicarboxamide], 6.30 to 7.30; with `C[C@]1(F)C[C@H](NC(=O)c2ccnc3c(C(N)=O)cnn23)C1` [Compound 7, N7-(trans-3-fluoro-3-methyl-cyclobutyl)pyrazolo[1,5-a]pyrimidine-3,7-dicarboxamide], 4.30 to 5.30. In the case of `C[C@]1(O)C[C@@H](NC(=O)c2ccnc3c(C(N)=O)cnn23)C1` [Compound 8, N7-(cis-3-hydroxy-3-methyl-cyclobutyl)pyrazolo[1,5-a]pyrimidine-3,7-dicarboxamide], the pIC50 was 4.30 to 5.30. With `N#C[C@H]1C[C@@H](NC(=O)c2ccnc3c(C(N)=O)cnn23)C1` [Compound 9, N7-(cis-3-cyanocyclobutyl)pyrazolo[1,5-a]pyrimidine-3,7-dicarboxamide] the figure was 5.30 to 6.30; with `CCC1(CC)CC(NC(=O)c2ccnc3c(C(N)=O)cnn23)C1` [Compound 10, N7-(3,3-diethylcyclobutyl)pyrazolo[1,5-a]pyrimidine-3,7-dicarboxamide], 4.00 to 4.30; with `CO[C@H]1C[C@@H](NC(=O)c2ccnc3c(C(N)=O)cnn23)C1` [Compound 11, N7-(cis-3-methoxycyclobutyl)pyrazolo[1,5-a]pyrimidine-3,7-dicarboxamide], 4.30 to 5.30.

For the molecule `NC(=O)c1cnn2c(C(=O)NC3CC4(CCOCC4)C3)ccnc12` [Compound 12, N7-(7-oxaspiro[3.5]nonan-2-yl)pyrazolo[1,5-a]pyrimidine-3,7-dicarboxamide], the pIC50 is 4.00 to 4.30. In the case of `NC(=O)c1cnn2c(C(=O)NC3CCc4ccncc4C3)ccnc12` (stereo not shown) [Compound 13, N7-(5,6,7,8-tetrahydroisoquinolin-7-yl)pyrazolo[1,5-a]pyrimidine-3,7-dicarboxamide] it was 4.00 to 4.30; in that of `NC(=O)c1cnn2c(C(=O)NC3Cc4cccc(CCC(F)(F)F)c4C3)ccnc12` (stereo not shown) [Compound 14, N7-[4-(3,3,3-trifluoropropyl)indan-2-yl]pyrazolo[1,5-a]pyrimidine-3,7-dicarboxamide], 5.30 to 6.30. Turning to `NC(=O)c1cnn2c(C(=O)NC3Cc4cccc(Oc5ccc(Cl)cc5)c4C3)ccnc12` (stereo not shown) [Compound 16, N7-[4-(4-chlorophenoxy)indan-2-yl]pyrazolo[1,5-a]pyrimidine-3,7-dicarboxamide], the pIC50 is 4.00 to 4.30. In the case of `NC(=O)c1cnn2c(C(=O)NC3Cc4cccc(-c5ccccn5)c4C3)ccnc12` (stereo not shown) [Compound 17, N7-[4-(2-pyridyl)indan-2-yl]pyrazolo[1,5-a]pyrimidine-3,7-dicarboxamide] it was 4.00 to 4.30; in that of `NC(=O)c1cnn2c(C(=O)N[C@H]3C[C@@H](OC(F)(F)F)C3)ccnc12` [Compound 18, N7-[cis-3-(trifluoromethoxy)cyclobutyl]pyrazolo[1,5-a]pyrimidine-3,7-dicarboxamide], 5.30 to 6.30. On to `NC(=O)c1cnn2c(C(=O)NC3Cc4nccn4C3)ccnc12` (stereo not shown) [Compound 19, N7-(6,7-dihydro-5H-pyrrolo[1,2-a]imidazol-6-yl)pyrazolo[1,5-a]pyrimidine-3,7-dicarboxamide], for which the negative-log IC50 (pIC50) is 4.30 to 5.30.

In the case of `NC(=O)c1cnn2c(C(=O)NC3CNc4ncccc4C3)ccnc12` (stereo not shown) [Compound 20, N7-(1,2,3,4-tetrahydro-1,8-naphthyridin-3-yl)pyrazolo[1,5-a]pyrimidine-3,7-dicarboxamide], the pIC50 is 4.30 to 5.30. Regarding `N#Cc1nn2c(C(=O)NC3Cc4ccccc4C3)ccnc2c1C(N)=O` [Compound 21, 2-cyano-N7-indan-2-yl-pyrazolo[1,5-a]pyrimidine-3,7-dicarboxamide], the pIC50 was 6.30 to 7.30.
